In US20260035365A1, “1H-PYRROLO[3,2-B]PYRIDINE DERIVATIVES AS IRREVERSIBLE INHIBITORS OF MUTANT EGFR FOR THE TREATMENT OF CANCER” (Bayer Aktiengesellschaft, priority 2022, published 2026):

Legend:
[1] = target: mutEGFR (D770_N771insSVD) (Homo sapiens, UniProt P00533, INS767SVD); assay: Exon20-mutant-EGFR (D770_N771insSVD) TR-FRET kinase assay; type: biochemical; details: 2 mM ATP, 15 min preincubation
Procedure, shortened: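 GST-fused human EGFR fragment R669-A1210 carrying the SVD insertion, Sf9-expressed, typically 15 pg/μl, was preincubated with compound for 15 min at 22° C in pH 7.0 Hepes/MgCl2 buffer. Phosphorylation was read by HTRF (665/620 nm ratio), normalised to no-inhibitor and no-enzyme controls.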

[2] = target: mutEGFR (D770_N771insNPG, T790); assay: mutEGFR (D770_N771insNPG, T790) kinase assay; type: biochemical, human
[3] = test system: BA/F3 (insSVD) cells; assay: Ba/F3 cell survival assay (Cell Titer-Glo), EGFR-insSVD; type: cell-based; details: Mus musculus, BaF3, 48 h, without IL-3, with EGF
Procedure, shortened: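 Viability read by CellTiter-Glo luminescence after 48 h compound exposure at 37° C, 4000 cells/well. Retrovirally transduced, puromycin-selected Ba/F3 lines carrying EGFR-insSVD ± T790M grew IL-3-free with 10 ng/mL EGF for 2 days beforehand; compound delivered by 100 nL pin.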

[4] = test system: BA/F3 (EGFR D770_N771 insSVD T790M) cells; assay: Ba/F3 cell survival assay (Cell Titer-Glo), EGFR-insSVD T790M; type: cell-based; details: Ba/F3 EGFR-D770-N771ins_SVD; 48 h, without IL-3, with EGF
Method: 293T cells from ATCC were transfected with pBABEpuro expression constructs for WT EGFR or EGFR-insSVD, or EGFR-insSVD T790M, and pCL-Eco packaging vector using Fugene-6 transfection reagent from Promega. Plates were incubated at 37° C. for 48 h. Retrovirus was harvested by filtering the media supernatant through a 0.45 μm filter.
Ba/F3 cells purchased from DSMZ were grown in RPMI+10% FBS+10 ng/mL IL-3 and infected with filtered retroviral supernatant at a 1:2 dilution. Polybrene was added to a concentration of 8 μg/mL, plates were spun for 90 min, and incubated for 16 h at 37° C. 2 μg/mL puromycin was added to the infected cells 24 h after infection and cells were continually grown in the presence of puromycin and 10 ng/mL IL-3. Following stably expressing Ba/F3 cell lines were generated: Ba/F3-EGFR-WT, Ba/F3-EGFR-insSVD, Ba/F3-EGFR-insSVD T790M, (Ba/F3-vector-control).
For cell survival assays, Ba/F3 cells were grown to a density of 1-2 million cells per mL, spun down and resuspended in media without IL-3, and replated at a concentration of 200,000-500,000 cells per mL. The cells ectopically expressing WT EGFR, EGFR-insSVD, or EGFR-insSVD T790M were plated with 10 ng/mL Millipore Culture grade EGF. The cells ectopically expressing pBABEpuro empty vector were plated with 10 ng/mL IL-3.
2 days later, cells were plated in 50 μL in a 384 well plate at a concentration of 4000 cells per well for cells assayed in the absence of IL-3 and 2000 cells per well for cells assayed in the presence of IL-3. 100 nL of compound was added to each well using a 100 nL pin head, and plates were incubated at 37° C. for 48 h.
Cell viability was measured by adding 20 μL of Cell Titer-Glo Luminescent Cell Viability Reagent diluted 1:3 in PBS. Plates were sealed with Perkin Elmer Top-Seal, inverted several times to mix, and immediately centrifuged at 1000 rpm for 2 min. Plates were incubated in low light conditions for 8-10 min and luminescence was measured.

mutEGFR (D770_N771insNPG, T790), sequence (P00533 with tags, fused parts or gaps INS770NPG limits assumed): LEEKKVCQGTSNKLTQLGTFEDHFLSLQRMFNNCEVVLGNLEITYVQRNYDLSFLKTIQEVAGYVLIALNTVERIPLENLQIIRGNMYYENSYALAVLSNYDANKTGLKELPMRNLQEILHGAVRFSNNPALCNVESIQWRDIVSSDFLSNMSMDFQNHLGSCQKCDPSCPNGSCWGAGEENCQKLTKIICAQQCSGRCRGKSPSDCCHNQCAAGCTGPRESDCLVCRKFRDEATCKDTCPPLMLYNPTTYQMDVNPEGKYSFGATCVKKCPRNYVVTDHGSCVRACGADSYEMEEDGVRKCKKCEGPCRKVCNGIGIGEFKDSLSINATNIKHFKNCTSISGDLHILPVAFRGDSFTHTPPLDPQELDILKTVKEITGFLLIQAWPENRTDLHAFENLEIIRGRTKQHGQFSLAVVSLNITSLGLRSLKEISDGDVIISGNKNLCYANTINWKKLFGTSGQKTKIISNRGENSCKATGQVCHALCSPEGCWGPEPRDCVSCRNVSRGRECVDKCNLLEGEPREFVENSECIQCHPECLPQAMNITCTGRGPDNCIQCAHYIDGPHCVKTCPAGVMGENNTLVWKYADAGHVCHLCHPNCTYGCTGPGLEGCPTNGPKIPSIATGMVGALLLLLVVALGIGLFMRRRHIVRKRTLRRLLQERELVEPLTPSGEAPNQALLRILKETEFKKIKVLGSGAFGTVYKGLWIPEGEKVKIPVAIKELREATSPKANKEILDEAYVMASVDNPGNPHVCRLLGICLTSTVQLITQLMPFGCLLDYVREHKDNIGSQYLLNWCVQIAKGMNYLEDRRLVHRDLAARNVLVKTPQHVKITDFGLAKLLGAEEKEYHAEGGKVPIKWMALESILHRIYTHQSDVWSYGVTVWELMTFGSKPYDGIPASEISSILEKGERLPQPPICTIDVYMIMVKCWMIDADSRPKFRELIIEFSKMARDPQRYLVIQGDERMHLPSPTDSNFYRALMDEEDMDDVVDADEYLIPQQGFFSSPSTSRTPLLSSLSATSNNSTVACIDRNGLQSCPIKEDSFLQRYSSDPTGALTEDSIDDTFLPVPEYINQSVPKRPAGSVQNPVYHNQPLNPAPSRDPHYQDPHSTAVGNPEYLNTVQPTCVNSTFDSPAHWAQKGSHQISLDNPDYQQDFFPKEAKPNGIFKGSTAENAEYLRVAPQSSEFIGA
mutEGFR (D770_N771insSVD), sequence (P00533 with tags, fused parts or gaps INS767SVD limits assumed): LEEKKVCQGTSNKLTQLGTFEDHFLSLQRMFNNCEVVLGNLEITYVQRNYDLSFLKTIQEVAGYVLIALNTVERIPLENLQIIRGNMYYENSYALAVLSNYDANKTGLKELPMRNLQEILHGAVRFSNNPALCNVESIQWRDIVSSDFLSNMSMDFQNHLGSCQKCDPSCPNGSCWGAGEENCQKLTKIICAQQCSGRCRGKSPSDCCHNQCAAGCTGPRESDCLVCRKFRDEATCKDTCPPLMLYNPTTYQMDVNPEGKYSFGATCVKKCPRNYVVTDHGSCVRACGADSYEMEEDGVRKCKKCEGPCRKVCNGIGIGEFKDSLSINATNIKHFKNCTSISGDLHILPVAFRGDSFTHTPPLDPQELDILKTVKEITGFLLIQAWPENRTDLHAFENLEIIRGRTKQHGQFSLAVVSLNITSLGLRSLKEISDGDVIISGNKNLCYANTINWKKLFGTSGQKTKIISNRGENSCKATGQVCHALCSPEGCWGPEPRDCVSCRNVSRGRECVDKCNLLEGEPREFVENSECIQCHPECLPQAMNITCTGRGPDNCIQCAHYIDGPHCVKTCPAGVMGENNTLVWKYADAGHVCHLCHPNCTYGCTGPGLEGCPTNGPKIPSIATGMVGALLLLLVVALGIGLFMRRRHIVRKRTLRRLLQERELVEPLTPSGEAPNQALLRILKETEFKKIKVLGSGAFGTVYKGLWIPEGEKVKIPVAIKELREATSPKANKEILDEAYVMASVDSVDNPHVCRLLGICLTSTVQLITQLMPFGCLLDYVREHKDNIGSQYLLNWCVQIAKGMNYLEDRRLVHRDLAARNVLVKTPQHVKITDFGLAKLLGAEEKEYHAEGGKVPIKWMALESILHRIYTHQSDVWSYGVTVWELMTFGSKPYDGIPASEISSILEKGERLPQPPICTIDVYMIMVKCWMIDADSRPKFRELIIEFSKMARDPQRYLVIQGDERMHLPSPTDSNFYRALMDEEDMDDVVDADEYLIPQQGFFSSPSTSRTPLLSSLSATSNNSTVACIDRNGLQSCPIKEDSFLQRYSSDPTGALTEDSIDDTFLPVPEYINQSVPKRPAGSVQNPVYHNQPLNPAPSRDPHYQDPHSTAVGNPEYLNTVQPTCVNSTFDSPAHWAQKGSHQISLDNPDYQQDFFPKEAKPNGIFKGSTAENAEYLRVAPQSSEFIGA

SMILES	IC50 [1]	IC50 [2]	IC50 [3]	IC50 [4]
C=CC(=O)NCCOc1cnccc1-c1[nH]c2cccnc2c1-c1ccccc1 [Example 2, N-(2-{[4-(3-phenyl-1H-pyrrolo[3,2-b]pyridin-2-yl)pyridin-3-yl]oxy}ethyl)prop-2-enamide]	461 nM	751 nM	5020 nM	9980 nM
C=CC(=O)NCCOc1cnccc1-c1[nH]c2cc(F)cnc2c1-c1ccccc1 [Example 6, N-(2-{[4-(6-fluoro-3-phenyl-1H-pyrrolo[3,2-b]pyridin-2-yl)pyridin-3-yl]oxy}ethyl)prop-2-enamide]	3850 nM	5510 nM	7080 nM	9980 nM
C=CS(=O)(=O)N(C)CCOc1cnccc1-c1[nH]c2cccnc2c1-c1ccc2cc[nH]c2c1 [Example 30, N-[2-({4-[3-(1H-indol-6-yl)-1H-pyrrolo[3,2-b]pyridin-2-yl]pyridin-3-yl}oxy)ethyl]-N-methylethenesulfonamide]	0.513 nM	1.82 nM	62.2 nM	831 nM
C=CC(=O)N(C)CCOc1cnccc1-c1[nH]c2cc(F)cnc2c1-c1ccccc1 [Example 7, N-(2-{[4-(6-fluoro-3-phenyl-1H-pyrrolo[3,2-b]pyridin-2-yl)pyridin-3-yl]oxy}ethyl)-N-methylprop-2-enamide]	147 nM	316 nM	4150 nM	6990 nM
C=CC(=O)N(C)CCOc1cnccc1-c1[nH]c2cccnc2c1-c1cccc(Cl)c1 [Example 22, N-[2-({4-[3-(3-chlorophenyl)-1H-pyrrolo[3,2-b]pyridin-2-yl]pyridin-3-yl}oxy)ethyl]-N-methylprop-2-enamide]	6.8 nM	12.2 nM	262 nM	7640 nM
C=CS(=O)(=O)N1C[C@@H](C)C[C@H]1COc1cnccc1-c1[nH]c2cccnc2c1-c1ccccc1 [Example 111, 2-(3-{[(2S,4S)-1-(ethenesulfonyl)-4-methylpyrrolidin-2-yl]methoxy}pyridin-4-yl)-3-phenyl-1H-pyrrolo[3,2-b]pyridine]	0.135 nM	0.33 nM	10.9 nM	77.7 nM
C#CC(=O)N(C)CCOc1cnccc1-c1[nH]c2cccnc2c1-c1ccccc1 [Example 27, N-methyl-N-(2-{[4-(3-phenyl-1H-pyrrolo[3,2-b]pyridin-2-yl)pyridin-3-yl]oxy}ethyl)prop-2-ynamide]	19.7 nM	69.8 nM	532 nM	8410 nM
CN(C)C/C=C/C(=O)N1CCC[C@H]1COc1cnccc1-c1[nH]c2cccnc2c1-c1ccccc1 [Example 37, (2E)-4-(dimethylamino)-1-[(2S)-2-({[4-(3-phenyl-1H-pyrrolo[3,2-b]pyridin-2-yl)pyridin-3-yl]oxy}methyl)pyrrolidin-1-yl]but-2-en-1-one]	3.7 nM	11.2 nM	229 nM	9130 nM
C=CC(=O)N(C)CCOc1cnccc1-c1[nH]c2cccnc2c1-c1ccc(F)c(Cl)c1 [Example 24, N-[2-({4-[3-(3-chloro-4-fluorophenyl)-1H-pyrrolo[3,2-b]pyridin-2-yl]pyridin-3-yl}oxy)ethyl]-N-methylprop-2-enamide]	11.9 nM	20.9 nM	726 nM	8320 nM
C=CS(=O)(=O)N(C)CCOc1cnccc1-c1[nH]c2cccnc2c1-c1ccccc1 [Example 25, N-methyl-N-(2-{[4-(3-phenyl-1H-pyrrolo[3,2-b]pyridin-2-yl)pyridin-3-yl]oxy}ethyl)ethenesulfonamide]	0.501 nM	2.08 nM	38.8 nM	3860 nM
C=CC(=O)N(C)CCOc1cnccc1-c1[nH]c2cccnc2c1-c1ccc(Cl)c(OC)c1 [Example 15, N-[2-({4-[3-(4-chloro-3-methoxyphenyl)-1H-pyrrolo[3,2-b]pyridin-2-yl]pyridin-3-yl}oxy)ethyl]-N-methylprop-2-enamide]	1540 nM	4850 nM	9240 nM	9980 nM
C=CC(=O)N(C)CCOc1cnccc1-c1[nH]c2cccnc2c1-c1ccccc1OC [Example 17, N-[2-({4-[3-(2-methoxyphenyl)-1H-pyrrolo[3,2-b]pyridin-2-yl]pyridin-3-yl}oxy)ethyl]-N-methylprop-2-enamide]	569 nM	1700 nM	8160 nM	9980 nM
C=CC(=O)N(C)CCOc1cnccc1-c1[nH]c2ccc(OC)nc2c1-c1ccccc1 [Example 8, N-(2-{[4-(5-methoxy-3-phenyl-1H-pyrrolo[3,2-b]pyridin-2-yl)pyridin-3-yl]oxy}ethyl)-N-methylprop-2-enamide]	198 nM	520 nM	5270 nM	8930 nM
C=CC(=O)N(C)CCCOc1cnccc1-c1[nH]c2cccnc2c1-c1ccccc1 [Example 3, N-methyl-N-(3-{[4-(3-phenyl-1H-pyrrolo[3,2-b]pyridin-2-yl)pyridin-3-yl]oxy}propyl)prop-2-enamide]	2840 nM	3410 nM	9980 nM	9980 nM
C=CS(=O)(=O)N(CC)CCOc1cnccc1-c1[nH]c2cccnc2c1-c1ccccc1 [Example 33, N-ethyl-N-(2-{[4-(3-phenyl-1H-pyrrolo[3,2-b]pyridin-2-yl)pyridin-3-yl]oxy}ethyl)ethenesulfonamide]	0.357 nM	1.92 nM	30.7 nM	253 nM
C=CS(=O)(=O)N1CCC[C@H]1COc1cnccc1-c1[nH]c2cccnc2c1-c1cccc(Cl)c1 [Example 40, 3-(3-chlorophenyl)-2-(3-{[(2S)-1-(ethenesulfonyl)pyrrolidin-2-yl]methoxy}pyridin-4-yl)-1H-pyrrolo[3,2-b]pyridine]	0.193 nM	0.29 nM	8.54 nM	67.9 nM
C=CC(=O)N(CC)CCOc1cnccc1-c1[nH]c2cccnc2c1-c1ccccc1 [Example 32, N-ethyl-N-(2-{[4-(3-phenyl-1H-pyrrolo[3,2-b]pyridin-2-yl)pyridin-3-yl]oxy}ethyl)prop-2-enamide]	15.1 nM	29.9 nM	364 nM	9650 nM
